Values of other authors, collected in US20160220512A1, “MODIFIED RELEASE PHARMACEUTICAL FORMULATIONS” (RUBICON RESEARCH PRIVATE LIMITED, priority 2013, published 2016).

What was measured:
[1] = test system: N-methyl d-aspartate (NMDA) receptor; settings: uncompetitive NMDA receptor antagonist
[2] = memantine and its salts

For `CC12CC3CC(C)(C1)CC(N)(C3)C2` [Memantine, 1-amino-3,5-dimethyladamantane], the “affinity for the receptor” value [1] is listed as “moderate affinity”, the BCS classification [2] is listed as “BCS Class I” and the permeability [2] is listed as “highly permeable”. The solubility [2] was “highly soluble”.
